Values joined by “and” are separate entries in the source; they are usually repeats but may differ in a detail not shown here. Identical values can stand only once. Inconclusive results and toxic doses are left out.

Our source for the T/C values is PubChem BioAssay AID344 (DTP/NCI, 2004).

This test relates to mice, LPC-1 plasma cell tumor ip, median survival T/C. Put plainly: NCI In Vivo Anticancer Drug Screen. Data for tumor model Lieberman Plasma Cell No. 1 (LPC-1) (intraperitoneal) in unknown mice. Conditions: endpoint: median survival time, schedule: Q01DX028 (sc), higher = longer survival. As to the method:
The antitumor activity of compounds was measured in mice bearing transplantable tumors. Survival or tumor size were measured and the results are expressed as the measurement made in the treated group (T) divided by the measurement made in the vehicle treated control group (C). The tumor model used in this assay is Lieberman Plasma Cell No. 1 (LPC-1) (intraperitoneal) in unknown mice

The mark [1] stands for this setting: dose: 2.0 mg/kg/injection, vehicle: methylcellulose (MC).
The mark [2] stands for this setting: dose: 4.0 mg/kg/injection, vehicle: methylcellulose (MC).
The mark [3] stands for this setting: dose: 8.0 mg/kg/injection, vehicle: methylcellulose (MC).
The mark [4] stands for this setting: dose: 200.0 mg/kg/injection, vehicle: steriod suspending solution.
Where [5] appears, read: dose: 400.0 mg/kg/injection, vehicle: steriod suspending solution.

As for `CCN(CC)CCNc1ccc(C)c2sc3ccccc3c(=O)c12` (tested in a mixture with another compound), the T/C is 221 % of control (dose: 48.0 mg/kg/injection, vehicle: saline); 231 % of control (dose: 69.0 mg/kg/injection, vehicle: saline); 165 % of control (dose: 98.0 mg/kg/injection, vehicle: saline); 173 % of control (dose: 140.0 mg/kg/injection, vehicle: saline).

As to `N=C(N)SCc1c2ccccc2c(CSC(=N)N)c2ccccc12`, the T/C was 97 % of control (dose: 2.5 mg/kg/injection, vehicle: carboxymethylcellulose (CMC)); 112 % of control (dose: 5.0 mg/kg/injection, vehicle: carboxymethylcellulose (CMC)); 95 % of control (dose: 10.0 mg/kg/injection, vehicle: carboxymethylcellulose (CMC)); 117 % of control (dose: 20.0 mg/kg/injection, vehicle: carboxymethylcellulose (CMC)); 115 % of control (dose: 40.0 mg/kg/injection, vehicle: carboxymethylcellulose (CMC)).

`CCN(CC)c1ccc2cc3ccc(=[N+](CC)CC)cc-3oc2c1`: the T/C was 97 % of control (dose: 1.0 mg/kg/injection, vehicle: methylcellulose (MC)); 93 % of control under setting [1]; 89 % of control under setting [2]; 87 % of control under setting [3].

Consider `CC1(C)CC(C)(c2ccc(O)cc2)c2ccccc2O1` (centres undefined), for which the T/C reads like this: under setting [4], 114 % of control; under setting [5], 114 % of control.

As for `NC(Cc1ccc(N(CCCl)CCCl)cc1)C(=O)O` (centres undefined), the T/C is 180 % of control under setting [1], 155 % of control under setting [2] and 108 % of control under setting [3].

As to `CS(=O)(=O)OCCN(CCOS(C)(=O)=O)c1ccc(N=O)cc1`, the T/C reads like this: (dose: 0.25 mg/kg/injection, vehicle: saline) 105 % of control; (dose: 0.5 mg/kg/injection, vehicle: saline) 107 % of control; (dose: 1.0 mg/kg/injection, vehicle: saline) 120 % of control; (dose: 1.8 mg/kg/injection, vehicle: saline) 157 % of control; (dose: 2.0 mg/kg/injection, vehicle: saline) 102 % of control and 115 % of control; (dose: 2.7 mg/kg/injection, vehicle: saline) 121 % of control. Also, the T/C is, setting by setting: (dose: 4.0 mg/kg/injection, vehicle: saline) 94 % of control and 100 % of control; (dose: 6.0 mg/kg/injection, vehicle: saline) 94 % of control.

As for `COc1ccc2c(c1)C(C)=CC(C)(C)N2`, the T/C was 110 % of control under setting [4] and 154 % of control under setting [5].

As for `O=CN(O)CC(=O)O`, the T/C was 93 % of control (dose: 65.0 mg/kg/injection, vehicle: carboxymethylcellulose (CMC)); 90 % of control (dose: 108.0 mg/kg/injection, vehicle: carboxymethylcellulose (CMC)); 90 % of control (dose: 180.0 mg/kg/injection, vehicle: carboxymethylcellulose (CMC)); 93 % of control (dose: 300.0 mg/kg/injection, vehicle: carboxymethylcellulose (CMC)); 95 % of control (dose: 500.0 mg/kg/injection, vehicle: carboxymethylcellulose (CMC)); 95 % of control (dose: 833.0 mg/kg/injection, vehicle: carboxymethylcellulose (CMC)).
